Results: US7258738B2, “Cementing compositions including salts” (Halliburton Energy Services, Inc., priority 2005, dated 2007)

Experiments:
skeletonema costatum = test: Algae toxicity, ISO 10253 (HOCNF); type: in vivo; conditions: amount required to kill or incapacitate half the test population
Description: (§1) According to still other embodiments described herein, a disulfonate salt of 2,4-pentanedione is provided. According to one such embodiment, the salt comprises 2,4-pentanedione-1,5-sodium disulfonate. According to another such embodiment, a disulfonate salt of 2,4-pentanedione has an environmentally acceptable toxicity. As used herein, the term “environmentally acceptable toxicity” means that, when tested according to procedures that are the same as or equivalent to those set forth by the OSPAR Guidelines for Completing the Harmonised Offshore Chemical Notification Format (HOCNF) (References number: 2003-1) that were in effect on Dec. 31, 2004, the salt is determined to have a toxicity of greater than about 10,000 mg/L for an algae (skeletonema costatum), a crustacean (acartia tonsa), a fish (scopthalmus) and a sediment reworker (corophium volutator). […]
(§2) In this Example 3, the toxicity results for the skeletonema costatum were determined according to ISO (International Organization for Standardization) 10253, the protocol for which is known to those of ordinary skill in the art, and is also the protocol required under the above-referenced HOCNF Guidelines. The toxicity results for the acartia tonsa were determined according to ISO 14669, the protocol for which is known to those of ordinary skill in the art. […]

[1] = Solubility of salt compared to free acid (methanol rinse); type: physicochemical
Description: The neutralized product was then rinsed several times with methanol to remove by-product acids, or any salts formed therefrom, while leaving the 2,4-pentanedione-1,5-sodium disulfonate primarily undissolved. […] The rinsed product was dried in a vacuum oven and filtered through a 300 mesh screen to afford a flowing pale orange/red powder. The resulting powder was 2,4-pentanedione-1,5-sodium disulfonate.

scopthalmus = test: Fish toxicity, Part B of the OSPAR Protocols; type: in vivo; conditions: amount required to kill or incapacitate half the test population
Description: as §1, §2

corophium volutator = test: Sediment reworker toxicity, Part B of the OSPAR Protocols; type: in vivo; conditions: amount required to kill or incapacitate half the test population
Description: as §1, §2

acartia tonsa = test: Crustacean toxicity, ISO 14669; type: in vivo; conditions: amount required to kill or incapacitate half the test population
Description: as §1, §2

O=C(CC(=O)CS(=O)(=O)[O-])CS(=O)(=O)[O-].[Na+].[Na+] [2,4-pentanedione-1,5-sodium disulfonate]
toxicity (skeletonema costatum): greater than 10,000 mg/L
solubility compared to the 2,4-pentanedione-1,5-disulfonic free acid [1]: significantly less soluble
toxicity (scopthalmus): greater than 10,000 mg/L
toxicity (corophium volutator): greater than 10,000 mg/L
toxicity (acartia tonsa): greater than 10,000 mg/L
